pIC50: −log10 of the molar value.
Target: T1, wt human LRRK2 (Homo sapiens, UniProt Q5S007)
T1 construct: wt human LRRK2, catalytic site, catalytic site (ThermoFisher/USA); purchased ThermoFisher
Assay: TR-FRET LanthaScreen Tb Kinase Activity Assay, inhibition of LRRK2 kinase
Assay type: biochemical
Details: 2 nM wt human LRRK2, 400 nM fluorescein-ERM (LRRKtide) peptide, 38 µM ATP, 15 min pre-incubation, 120 min at room temperature
Procedure: In Table 2, activity is provided as the following: “+++”=IC50 less than 50 nM; “++”=IC50 between 50 nM and 200 nM; “+”=IC50> or =200 nM.
The compounds listed in Table 2 were tested for their inhibitory effect on LRRK2 kinase according to the following procedures.
The protocol for basic TR-FRET LanthaScreen Tb Kinase Activity Assay inhibitor studies were as follows. LanthaScreen Kinase Activity Assays (ThermoFisher/USA) to evaluate inhibitors were performed by addition of 100 nl of test compound in corresponding DMSO dilutions/5 μl of kinase/fluorescein-ERM(LRRKtide) peptide mixture, Compound & kinase were pre-incubated for 15 minutes, then 5 μl of ATP into 384 well small volume plates. After incubation for 120 minutes at room temperature, the detection reagents containing Tb-anti-pLRRKtide antibody were added to monitor phosphorylation level of peptide. Then, after 60 min minutes incubation at room temperature plates were read in Envision. Data analysis of emission ratios was according to LanthaScreen Tb Kinase Activity Assay protocol.
Kinase and assay components were adjusted to final concentrations according to the kit protocol. For LRRK2: 2 nM wt human LRRK2, catalytic site, catalytic site (ThermoFisher/USA), 400 nM peptide, 38 µM ATP in 1× Kinase Buffer A.
Basic protocol for TR-FRET LanthaScreen Tb Kinase Activity Assay inhibitor studies involved two steps:
Enzymatic step: Addition of […] of test compound in corresponding DMSO dilutions, 5 μL of kinase/substrate mixture, 5 μL of ATP into 384 well small volume plates. Incubation for 120 minutes at room temperature.
Detection step: Addition of 10 μL EDTA & antibody, read plate after 60 minutes. Data analysis of emission ratios according to KinEASE assay protocol.
Kinase and assay components were adjusted to final concentrations according to the kit protocol.

T1 sequence (Q5S007 970-2527 limits assumed): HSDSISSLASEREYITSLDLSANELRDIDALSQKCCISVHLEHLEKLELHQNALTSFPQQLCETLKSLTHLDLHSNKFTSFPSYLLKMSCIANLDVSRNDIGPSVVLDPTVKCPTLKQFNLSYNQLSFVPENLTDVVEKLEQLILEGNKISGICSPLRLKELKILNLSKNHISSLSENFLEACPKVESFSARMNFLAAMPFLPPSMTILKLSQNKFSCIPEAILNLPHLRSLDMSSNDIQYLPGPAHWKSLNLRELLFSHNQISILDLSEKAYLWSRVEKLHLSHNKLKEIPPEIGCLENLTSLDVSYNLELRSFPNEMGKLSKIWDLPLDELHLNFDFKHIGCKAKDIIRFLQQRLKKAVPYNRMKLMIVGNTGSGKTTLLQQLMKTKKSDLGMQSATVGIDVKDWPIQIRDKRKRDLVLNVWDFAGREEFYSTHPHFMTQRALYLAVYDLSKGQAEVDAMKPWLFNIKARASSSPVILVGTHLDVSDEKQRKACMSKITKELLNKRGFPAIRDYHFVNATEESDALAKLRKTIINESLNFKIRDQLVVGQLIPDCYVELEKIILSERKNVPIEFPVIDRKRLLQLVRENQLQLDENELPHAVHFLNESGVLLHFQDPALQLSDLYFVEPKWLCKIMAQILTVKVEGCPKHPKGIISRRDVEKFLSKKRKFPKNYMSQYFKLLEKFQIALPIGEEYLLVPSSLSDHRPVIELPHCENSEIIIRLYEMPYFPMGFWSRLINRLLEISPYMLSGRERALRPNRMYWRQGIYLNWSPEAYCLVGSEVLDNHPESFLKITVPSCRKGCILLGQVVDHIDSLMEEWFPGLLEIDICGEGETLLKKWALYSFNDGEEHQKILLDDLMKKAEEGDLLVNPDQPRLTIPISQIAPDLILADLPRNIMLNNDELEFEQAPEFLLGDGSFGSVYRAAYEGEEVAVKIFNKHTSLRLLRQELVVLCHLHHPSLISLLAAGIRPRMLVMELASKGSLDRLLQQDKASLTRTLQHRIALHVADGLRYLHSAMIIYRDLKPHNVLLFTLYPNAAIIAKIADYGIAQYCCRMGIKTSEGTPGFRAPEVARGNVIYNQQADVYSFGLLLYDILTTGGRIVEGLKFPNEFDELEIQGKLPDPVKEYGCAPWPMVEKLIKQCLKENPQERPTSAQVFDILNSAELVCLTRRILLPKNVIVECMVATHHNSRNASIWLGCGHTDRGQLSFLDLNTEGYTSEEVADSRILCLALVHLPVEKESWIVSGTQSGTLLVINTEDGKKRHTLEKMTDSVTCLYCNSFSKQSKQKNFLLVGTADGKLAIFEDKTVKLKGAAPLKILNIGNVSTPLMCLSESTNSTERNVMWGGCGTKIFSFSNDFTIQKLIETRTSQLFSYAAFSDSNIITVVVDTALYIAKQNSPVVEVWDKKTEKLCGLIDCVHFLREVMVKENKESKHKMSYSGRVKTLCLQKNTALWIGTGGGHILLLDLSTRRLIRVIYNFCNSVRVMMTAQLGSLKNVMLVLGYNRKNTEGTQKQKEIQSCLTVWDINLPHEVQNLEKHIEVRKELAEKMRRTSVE

## COC(=O)c1cnc2c(c1)-n1ncc(Cl)c1N=C(c1c(F)cccc1F)N2 [Methyl 5-chloro-8-(2,6-difluorophenyl)-2,3,7,9,11-pentazatricyclo[8.4.0.02,6]tetradeca-1(10),3,5,7,11,13-hexaene-13-carboxylate]
  pIC50: > 7.30

## O=C(NCCO)c1ccc2c(c1)-n1ncc(Cl)c1N=C(c1c(F)cccc1F)N2 [3-chloro-5-(2,6-difluorophenyl)-N-(2-hydroxyethyl)-6H-pyrazolo[1,5-a][1,3,5]benzotriazepine-9-carboxamide]
  pIC50: > 7.30

## Fc1cccc(F)c1C1=Nc2c(Cl)cnn2-c2cc(N3C[C@H]4C[C@@H]3CO4)ccc2N1 [(1R,4R)-5-[3-chloro-5-(2,6-difluorophenyl)-6H-pyrazolo[1,5-a][1,3,5]benzotriazepin-9-yl]-2-oxa-5-azabicyclo[2.2.1]heptane]
  pIC50: > 7.30

## Fc1cccc(F)c1C1=Nc2c(Cl)cnn2-c2cc(N3CCNC4(CC4)C3)ccc2N1 [3-chloro-9-(4,7-diazaspiro[2.5]octan-7-yl)-5-(2,6-difluorophenyl)-6H-pyrazolo[1,5-a][1,3,5]benzotriazepine]
  pIC50: > 7.30

## Fc1cccc(F)c1C1=Nc2c(Cl)cnn2-c2cc(N3CC4CCC(C3)O4)ncc2N1 [3-(3-Chloro-5-(2,6-difluorophenyl)-6H-pyrazolo[1,5-a]pyrido[3,4-f][1,3,5]triazepin-9-yl)-8-oxa-3-azabicyclo[3.2.1]octane]
  pIC50: > 7.30

## O=C(NO)c1ccc2c(c1)-n1ncc(Cl)c1N=C(c1c(F)cccc1F)N2 [3-chloro-5-(2,6-difluorophenyl)-6H-pyrazolo[1,5-a][1,3,5]benzotriazepine-9-carbohydroxamic acid]
  pIC50: > 7.30

## Fc1cccc(F)c1C1=Nc2c(Cl)cnn2-c2cc(N3CC4(COC4)C3)ccc2N1 [6-[3-chloro-5-(2,6-difluorophenyl)-6H-pyrazolo[1,5-a][1,3,5]benzotriazepin-9-yl]-2-oxa-6-azaspiro[3.3]heptane]
  pIC50: > 7.30

## C[C@@H]1COCCN1c1ccc2c(c1)-n1ncc(Cl)c1N=C(c1c(F)cccc1F)N2 [(3R)-4-[3-chloro-5-(2,6-difluorophenyl)-6H-pyrazolo[1,5-a][1,3,5]benzotriazepin-9-yl]-3-methyl-morpholine]
  pIC50: > 7.30

## C[C@H]1COCCN1c1ccc2c(c1)-n1ncc(Cl)c1N=C(c1c(F)cccc1F)N2 [(3S)-4-[3-chloro-5-(2,6-difluorophenyl)-6H-pyrazolo[1,5-a][1,3,5]benzotriazepin-9-yl]-3-methyl-morpholine]
  pIC50: > 7.30

## COC1CN(c2ccc3c(c2)-n2ncc(Cl)c2N=C(c2c(F)cccc2F)N3)C1 [3-chloro-5-(2,6-difluorophenyl)-9-(3-methoxyazetidin-1-yl)-6H-pyrazolo[1,5-a][1,3,5]benzotriazepine]
  pIC50: > 7.30

## Fc1cccc(F)c1C1=Nc2c(Cl)cnn2-c2cc(N3CC(F)C3)ccc2N1 [3-chloro-5-(2,6-difluorophenyl)-9-(3-fluoroazetidin-1-yl)-6H-pyrazolo[1,5-a][1,3,5]benzotriazepine]
  pIC50: > 7.30
